Counter-ions that a name gives are not always drawn.

Consider 29 compounds from patent US9944589B2, “Cycloproplyamine derivatives useful as inhibitors of histone demethylases KDM1A” (Istituto Europeo de Oncologia S.r.L., priority 2012, dated 2018).

Assay [1] addresses T1, human recombinant KDM1A (LSD1)/CoRest (Homo sapiens, UniProt O60341).
T1 construct: made in house; host or cells: E. coli
The assay is described as follows: Assay of enzyme inhibition of KDM1A (LSD1), Amplex UltraRed/peroxidase coupled. Format: biochemical. To be noted: 15 min preincubation, 4.5 μM mono-methylated H3-K4 peptide, range classes, read-out: IC50 [μM], KDM1A inhibition assay. Summed up: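 KDM1A/CoRest complex with inhibitor (e.g. 0–100 μM) and Amplex UltraRed/peroxidase preincubated 15 min at RT. Substrate: mono-methylated H3K4 21-mer peptide in 50 mM Tris pH 8, 0.05 mg/ml BSA, aerobic. IC50 from duplicates run twice, background-corrected.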

The subject of assay [2] is Acute promyelocytic leukemia NB4 cells. The assay is described as follows: Cell growth (CellTiter-Fluor cell viability assay). Format: cell-based. To be noted: Homo sapiens, NB-4, 48 h; for IC50: range classes, read-out: IC50 [μM], cell growth inhibitory assay. An excerpt: CellTiter-Flor® (Promega) is as a nonlytic, single-reagent-addition fluorescence assay that measures the relative number of living cells in a culture population after experimental manipulation. The CellTiter-Fluor™ Cell Viability Assay measures the conserved and constitutive protease activity within live cells and therefore acts as a marker for cell viability.
Acute promyelocytic leukemia NB4 cells, (obtained from the Deutsche Sammlung von Mikroorganismen and Zellkulturen) in exponential growth, were incubated for 48 h with different concentrations of the inhibitors. After 48 h a volume of CellTiter-Fluor® Reagent equal to one fifth of volume of cell culture medium was added. The content was mixed and incubates for at least 90 min at 37° C. degree to obtain a stable signal. The fluorescence was recorded using an excitation wavelength of 360 nm and an emission at 535 nm. The IC50 was calculated using GraphPad Software.

Regarding `CC[C@@]1(N)C[C@H]1c1ccc(NC(=O)Cc2ccc3ccccc3c2)cc1` (relative stereo) [Example A-74, N-[4-trans-2-amino-2-ethyl-cyclopropyl] phenyl]-2-(2-naphthyl) acetamide hydrochloride], the IC50 was less than 0.1 µM in assay [1] and 10 to 50 µM in assay [2].

As for `CC[C@@]1(N)C[C@H]1c1cccc(NC(=O)c2cccc(NC(=O)OCc3ccccc3)c2)c1` (relative stereo) [Example A-33, benzyl N-[3-[[3-[(trans)-2-amino-2-ethyl-cyclopropyl]phenyl]carbamoyl]phenyl]carbamate hydrochloride], the IC50 in assay [1] was in the range of 0.1 to 1 µM; in assay [2], 10 to 50 µM.

As to `N[C@]1(Cc2ccc3ccccc3c2)C[C@H]1c1ccc(NC(=O)Cc2cccc3ccccc23)cc1` (relative stereo) [Example A-76, N-[4-[trans-2-amino-2-(2-naphthylmethyl)cyclopropyl]phenyl]-2-(1-naphthyl)acetamide hydrochloride], the values for the IC50 in assay [1] and in assay [2] were 0.1 to 1 µM and no more than 10 µM, respectively.

As to `CC[C@@]1(N)C[C@H]1c1ccc(NC(=O)c2ccc(NC(=O)OCc3ccccc3)cc2)c(F)c1` (relative stereo) [Example A-95, benzyl N-[4-[[4-[trans-2-amino-2-ethyl-cyclopropyl]-2-fluoro-phenyl]carbamoyl]phenyl]carbamate hydrochloride], the IC50 in assay [1] was 0.1 to 1 µM; in assay [2] it was no more than 10 µM.

On to `N[C@]1(c2ccc([N+](=O)[O-])cc2)C[C@H]1c1ccccc1` (relative stereo) [Example D-3, trans-1-(4-nitrophenyl)-2-phenyl-cyclopropanamine hydrochloride], for which the IC50 in assay [1] was 0.1 to 1 µM; in assay [2], 10 to 50 µM.

With `N[C@]1(Cc2ccc3ccccc3c2)C[C@H]1c1ccc(Br)cc1` (relative stereo) [Example A-29, trans-2-(4-bromophenyl)-1-(2-naphthylmethyl)cyclopropanamine hydrochloride], the figures for the IC50 in assay [1] and in assay [2] were 0.1 to 1 µM and 10 to 50 µM, respectively.

For `CC[C@@]1(N)C[C@H]1c1cccc(NC(=O)Cc2cccc3ccccc23)c1` (relative stereo) [Example A-77, N-[3-[trans-2-amino-2-ethyl-cyclopropyl]phenyl]-2-(1-naphthyl) acetamide hydrochloride], the IC50 is 0.1 to 1 µM in assay [1] and 10 to 50 µM in assay [2].

As for `CC[C@@]1(N)C[C@H]1c1ccc(NC(=O)c2ccc(N3CCOCC3)c(NC(=O)OCc3ccccc3)c2)cc1` (relative stereo) [Example A-99, benzyl N-[5-[[4-[trans-2-amino-2-ethyl-cyclopropyl]phenyl]carbamoyl]-2-morpholino-phenyl]carbamate 2,2,2-trifluoroacetic acid], the values for the IC50 in assay [1] and in assay [2] were less than 0.1 µM and no more than 10 µM, respectively.

`CC[C@@]1(N)C[C@H]1c1ccc(NC(=O)c2ccc(N3CCN(C)CC3)c(NC(=O)OCc3ccccc3)c2)cc1` (relative stereo) [Example A-117, benzyl N-[5-[[4-[trans-2-amino-2-ethyl-cyclopropyl]phenyl]carbamoyl]-2-(4-methylpiperazin-1-yl)phenyl] carbamate 2,2,2-trifluoroacetic acid]: the IC50 in assay [1] is 0.1 to 1 µM; in assay [2], no more than 10 µM.

`CC[C@@]1(N)C[C@H]1c1cccc(NC(=O)c2ccc(-c3ccccc3)cc2)c1` (relative stereo) [Example A-91, N-[3-[trans-2-amino-2-ethyl-cyclopropyl]phenyl]-4-phenyl-benzamide hydrochloride]: the results for the half-inhibitory concentration (IC50) in assay [1] and in assay [2] were 0.1 to 1 µM and 10 to 50 µM, respectively.

Take `CC[C@@]1(N)C[C@H]1c1ccc(Br)cc1` (relative stereo) [Example A-12, trans-2-(4-bromophenyl)-1-ethyl-cyclopropanamine hydrochloride]: the IC50 in assay [1] lay in the range of 0.1 to 1 µM; in assay [2] it was 10 to 50 µM.

With `N[C@]1(Cc2ccccc2)C[C@H]1c1ccc(Br)cc1` (relative stereo) [Example A-13, trans-1-benzyl-2-(4-bromophenyl)cyclopropanamine hydrochloride], the IC50 in assay [1] lay in the range of 0.1 to 1 µM; in assay [2] it was 10 to 50 µM.

For `CC[C@@]1(N)C[C@H]1c1ccc(NC(=O)c2cccc3ccccc23)cc1` (relative stereo) [Example A-71, N-[4-(trans-2-amino-2-ethyl-cyclopropyl)phenyl] naphthalene-1-carboxamide hydrochloride], the IC50 in assay [1] was less than 0.1 µM; in assay [2] it was no more than 10 µM.

With `CC[C@@]1(N)C[C@H]1c1ccc(OC(F)(F)F)cc1` (relative stereo) [Example A-24, 1-ethyl-(trans)-2-[4-(trifluoromethoxy)phenyl] cyclopropanamine hydrochloride], the IC50 was 1 to 5 µM in assay [1] and 50 to 100 µM in assay [2].

As for `N[C@]1(c2ccccc2)C[C@H]1c1ccc(NC(=O)c2cccc3ccccc23)cc1` (relative stereo) [Example A-90, N-[4-[trans-2-amino-2-phenyl-cyclopropyl]phenyl] naphthalene-1-carboxamide hydrochloride], the IC50 in assay [1] is less than 0.1 µM; in assay [2] it was no more than 10 µM.

Turning to `CC[C@@]1(N)C[C@H]1c1cccc(NC(=O)c2cccc(Cl)c2)c1` (relative stereo) [Example A-80, N-[3-[trans-2-amino-2-ethyl-cyclopropyl]phenyl]-3-chloro-benzamide hydrochloride], the IC50 in assay [1] was 0.1 to 1 µM; in assay [2] it was 10 to 50 µM.

Take `N[C@]1(Cc2ccc3ccccc3c2)C[C@H]1c1ccc(NC(=O)c2ccc(NC(=O)OCc3ccccc3)cc2)cc1` (relative stereo) [Example A-70, benzyl N-[4-[[4-[trans-2-amino-2-(2-naphthylmethyl)cyclopropyl]phenyl]carbamoyl]phenyl]carbamate 2,2,2-trifluoroacetic acid]: the IC50 is 0.1 to 1 µM in assay [1] and no more than 10 µM in assay [2].

Consider `CC[C@@]1(N)C[C@H]1c1ccc(NC(=O)c2ccc(N3CCN(C)CC3)cc2)cc1` (relative stereo) [Example A-97, N-[4-[trans-2-amino-2-ethyl-cyclopropyl]phenyl]-4-(4-methylpiperazin-1-yl)benzamide 2,2,2-trifluoroacetic acid], for which the 50% inhibitory concentration (IC50) was less than 0.1 µM in assay [1] and 10 to 50 µM in assay [2].

Turning to `CC[C@@]1(N)C[C@H]1c1cccc(-n2cc(-c3ccccc3)nn2)c1` (relative stereo) [Example A-122, trans-1-ethyl-2-[3-(4-phenyltriazol-1-yl)phenyl]cyclopropan amine hydrochloride], the figures for the IC50 in assay [1] and in assay [2] were 0.1 to 1 µM and 10 to 50 µM, respectively.

As to `N[C@]1(Cc2ccccc2)C[C@H]1c1ccc(OCc2ccccc2)cc1` (relative stereo) [Example A-43, trans-1-benzyl-2-(4-benzyloxyphenyl) cyclopropanamine hydrochloride], the IC50 in assay [1] fell in the range of 0.1 to 1 µM; in assay [2], 10 to 50 µM.

In the case of `CN1CCN(C(=O)CN[C@]2(Cc3ccc4ccccc4c3)C[C@H]2c2ccccc2)CC1` (relative stereo) [Example C-24, 1-(4-methylpiperazin-1-yl)-2-[[trans-1-(2-naphthylmethyl)-2-phenyl-cyclopropyl]amino]ethanone dihydrochloride], the IC50 lay in the range of 0.1 to 1 µM in assay [1] and 10 to 50 µM in assay [2].

Take `CC[C@@]1(N)C[C@H]1c1ccc(NC(=O)CCc2ccccc2)cc1` (relative stereo) [Example A-40, N-[4-[(trans)-2-amino-2-ethyl-cyclopropyl]phenyl]-3-phenyl-propanamide hydrochloride]: the IC50 in assay [1] was less than 0.1 µM; in assay [2] it was no more than 10 µM.

Turning to `Nc1ccc([C@@H]2C[C@]2(N)Cc2ccc3ccccc3c2)cc1` (relative stereo) [Example A-119, 4-[trans-2-amino-2-(2-naphthylmethyl)cyclopropyl]aniline 2,2,2-trifluoroacetic acid], the IC50 in assay [2] is no more than 10 µM.

Turning to `N[C@@H]1C[C@H]1c1ccccc1` (racemic) [tranylcypromine, reference compound], in assay [2] (100 μM, read-out: inhibition at 100 μM, cell growth inhibitory assay), the inhibition at 100 µM turned out to be 10%.

For the compound `N[C@]1(Cc2ccccc2)C[C@H]1c1ccccc1` (relative stereo) [Example A-8, trans-1-benzyl-2-phenyl-cyclopropanamine hydrochloride], in assay [2], the IC50 fell in the range of 50 to 100 µM.

As to `N[C@@]1(CO)C[C@H]1c1ccccc1` (relative stereo) [Example B-2, [1-Amino-(cis)-2-phenyl-cyclopropyl]methanol], the IC50 in assay [2] was in the range of 50 to 100 µM.

With `CC[C@@]1(NCc2c(OC)ccc3ccccc23)C[C@H]1c1ccccc1` [Example C-2, (1R,2S)-1-ethyl-N-[(2-methoxy-1-naphthyl)methyl]-2-phenyl-cyclopropanamine], in assay [2], the IC50 was 50 to 100 µM.

On to `CC[C@@]1(N)C[C@H]1c1ccc(NC(=O)c2ccc3ccccc3c2)cc1` (relative stereo) [Example A-30, trans-N-[4-[2-amino-2-ethyl-cyclopropyl]phenyl]naphthalene-2-carboxamide hydrochloride], for which the IC50 in assay [2] lay in the range of 10 to 50 µM.

Take `CC[C@@]1(N)C[C@H]1c1ccc2ncccc2c1` (relative stereo) [Example A-14, trans-1-ethyl-2-(6-quinolyl)cyclopropanamine dihydrochloride]: in assay [2], the IC50 was in the range of 10 to 50 µM.
